pIC50: −log10 of the molar value.
Tests used:
γ-secretase [1] = target: T1, γ-secretase (Homo sapiens, UniProt P49768); test: Screening for γ-secretase-modulating activity: Aβtotal in supernatant of SKNBE2 cells carrying hAPP 695 wild type (Alphalisa); type: cell-based; details: SKNBE2 human neuroblastoma cells carrying hAPP 695 wild type, overnight incubation, Aβtotal in cell supernatant
T1 construct: endogenous in cells; host or cells: SKNBE2 human neuroblastoma cells (carrying hAPP 695 wild type as substrate)
Method: (§1) Screening was carried out using SKNBE2 human neuroblastoma cells carrying the hAPP 695—wild type, grown in Dulbecco's Modified Eagle's Medium/Nutrient mixture F-12 (DMEM/NUT-mix F-12) (HAM) provided by Invitrogen (cat no. 10371-029) containing 5% Serum/Fe supplemented with 1% non-essential amino acids, 1-glutamine 2 mM, Hepes 15 mM, penicillin 50 U/ml (units/ml) en streptomycin 50 μg/ml. Cells were grown to near confluency.
(§2) The screening was performed using a modification of the assay as described in Citron et al (1997) Nature Medicine 3: 67. Briefly, cells were plated in a 384-well plate at 10^4 cells/well in Ultraculture (Lonza, BE12-725F) supplemented with 1% glutamine (Invitrogen, 25030-024), 1% non-essential amino acid (NEAA), penicillin 50 U/ml en streptomycin 50 μg/ml in the presence of test compound at different test concentrations. The cell/compound mixture was incubated overnight at 37° C., 5% CO2. The next day the media were assayed by two sandwich immuno-assays, for Aβ42 and Aβ total.
(§3) Aβtotal and Aβ42 concentrations were quantified in the cell supernatant using the Aphalisa technology (Perkin Elmer). Alphalisa is a sandwich assay using biotinylated antibody attached to streptavidin coated donorbeads and antibody conjugated to acceptor beads. In the presence of antigen, the beads come into close proximity. The excitation of the donor beads provokes the release of singlet oxygen molecules that trigger a cascade of energy transfer in the acceptor beads, resulting in light emission. To quantify the amount of Aβ42 in the cell supernatant, monoclonal antibody specific to the C-terminus of Aβ42 (JRF/cAβ42/26) was coupled to the receptor beads and biotinylated antibody specific to the N-terminus of Aβ (JRF/AβN/25) was used to react with the donor beads. To quantify the amount of Aβtotal in the cell supernatant, monoclonal antibody specific to the N-terminus of Aβ (JRF/AβN/25) was coupled to the receptor beads and biotinylated antibody specific to the mid region of Aβ (biotinylated 4G8) was used to react with the donor beads.
(§4) To obtain the values reported in Table 3, the data are calculated as percentage of the maximum amount of amyloid Beta 42 measured in the absence of the test compound. The sigmoidal dose response curves were analyzed using non-linear regression analysis with percentage of the control plotted against the log concentration of the compound. A 4-parameter equation was used to determine the IC50.

γ-secretase [2] = target: T1, γ-secretase; test: Screening for γ-secretase-modulating activity: Aβ42 in supernatant of SKNBE2 cells carrying hAPP 695 wild type (Alphalisa); type: cell-based; details: SKNBE2 human neuroblastoma cells carrying hAPP 695 wild type, overnight incubation, Aβ42 in cell supernatant
Method: as §1, §2, §3, §4

Row | SMILES | pIC50 (γ-secretase [1]) | pIC50 (γ-secretase [2])
1 | Cc1cn(-c2ccc3n(c2=O)C[C@@H](C)N(C(C)c2cc(C(F)(F)F)cc(C(F)(F)F)c2)C3=O)cn1 (mixture of isomers) [compound 154] | < 5.00 | 7.30
2 | Cc1cn(-c2ccc3n(c2=O)CCN(C(C)c2cccc(Cl)c2Cl)C3=O)cn1 (racemic) [compound 10] | < 5.00 | 6.66
3 | Cc1cn(-c2ccc3n(c2=O)CCN(C(c2ccccc2)c2cc(C(F)(F)F)cc(C(F)(F)F)c2)C3=O)cn1 (racemic) [compound 52] | < 5.00 | 6.01
4 | Cc1cn(-c2ccc3n(c2=O)C(C)C(C)N(Cc2cc(C(F)(F)F)cc(C(F)(F)F)c2)C3=O)cn1 (single isomer, unassigned) [14a] | < 5.00 | 5.75
5 | Cc1cn(-c2ccc3n(c2=O)C(C)C(C)N(Cc2cc(C(F)(F)F)cc(C(F)(F)F)c2)C3=O)cn1 (single isomer, unassigned) [14b] | < 5.00 | 6.19
6 | Cc1cn(-c2ccc3n(c2=O)C[C@@H](C)N(C(C)c2cc(CC4CC4)cc(C(F)(F)F)c2)C3=O)cn1 (single isomer, unassigned) [compound 135] | < 5.00 | 7.70
7 | Cc1cn(-c2ccc3n(c2=O)C[C@@H](C)N(C(C)c2cc(CC4CC4)cc(C(F)(F)F)c2)C3=O)cn1 (single isomer, unassigned) [compound 136] | < 5.00 | 7.40
8 | CCC(c1cc(OC)cc(C(F)(F)F)c1)N1C(=O)c2ccc(-n3cnc(C)c3)c(=O)n2C[C@H]1C (single isomer, unassigned) [compound 142] | < 5.00 | 6.68
9 | CCOc1cc(C(C)N2C(=O)c3ccc(-n4cnc(C)c4)c(=O)n3C[C@H]2C)cc(C(F)(F)F)c1 (single isomer, unassigned) [compound 144] | < 5.00 | 6.89
10 | Cc1cn(-c2ccc3n(c2=O)C[C@@H](C)N(C(C)c2cccc(OC(F)(F)F)c2)C3=O)cn1 (single isomer, unassigned) [compound 146] | < 5.00 | 6.82
11 | Cc1cn(-c2ccc3n(c2=O)C[C@@H](C)N(C(C)c2cccc(OC(F)(F)F)c2)C3=O)cn1 (single isomer, unassigned) [compound 147] | < 5.00 | 6.48
12 | COc1cc(C(C)N2C(=O)c3ccc(-n4cnc(C)c4)c(=O)n3C[C@H]2C)cc(C(F)(F)F)c1 (single isomer, unassigned) [compound 148] | < 5.00 | 6.85
13 | COc1cc(C(C)N2C(=O)c3ccc(-n4cnc(C)c4)c(=O)n3C[C@H]2C)cc(C(F)(F)F)c1 (single isomer, unassigned) [compound 149] | < 5.00 | 6.52
14 | Cc1cn(-c2ccc3n(c2=O)CCN(C(C)c2c[nH]c4cc(F)c(Cl)cc24)C3=O)cn1 (single isomer, unassigned) [compound 184] | 5.04 | 6.19
15 | Cc1cn(-c2ccc3n(c2=O)CC(C)N(C(C)c2c[nH]c4cc(F)c(Cl)cc24)C3=O)cn1 (single isomer, unassigned) [compound 187] | 5.16 | 6.72
16 | Cc1cn(-c2ccc3n(c2=O)CC(C)N(C(C)c2c[nH]c4cc(F)c(Cl)cc24)C3=O)cn1 (single isomer, unassigned) [compound 188] | 5.34 | 8.00
17 | CCn1cc(C(C)N2C(=O)c3ccc(-n4cnc(C)c4)c(=O)n3CC2C)c2cc(Cl)c(F)cc21 (single isomer, unassigned) [compound 191] | < 5.00 | 6.70
18 | Cc1cn(-c2ccc3n(c2=O)CC(C)N(C(C)c2cn(C(C)C)c4cc(F)c(Cl)cc24)C3=O)cn1 (single isomer, unassigned) [compound 193] | < 5.00 | 6.70

Row | SMILES | pIC50 (γ-secretase [1]) | pIC50 (γ-secretase [2])
19 | Cc1cn(-c2ccc3n(c2=O)CC(C)N(C2Cc4ccccc4C2)C3=O)cn1 (single isomer, unassigned) [compound 206] | < 5.00 | < 5.00
20 | Cc1cn(-c2ccc3n(c2=O)CCN(C(C)c2cc(Cl)cc(Cl)c2)C3=O)cn1 (single isomer, unassigned) [compound 209] | < 5.00 | 6.42
21 | Cc1cn(-c2ccc3n(c2=O)C[C@@H](C)N(C(C)c2cc(Cl)cc(Cl)c2)C3=O)cn1 (single isomer, unassigned) [compound 210] | < 5.00 | 6.59
22 | Cc1cn(-c2ccc3n(c2=O)CC(C)N(C(C)c2cn(C)c4ccc(C(F)(F)F)cc24)C3=O)cn1 (single isomer, unassigned) [compound 214] | 5.19 | 6.62
23 | Cc1cn(-c2ccc3n(c2=O)CC(C)N(C(C)c2cn(C)c4ccc(C(F)(F)F)cc24)C3=O)cn1 (single isomer, unassigned) [compound 215] | 5.84 | 8.00
24 | CCn1cc(C(C)N2C(=O)c3ccc(-n4cnc(C)c4)c(=O)n3CC2C)c2cc(C(F)(F)F)ccc21 (single isomer, unassigned) [compound 216] | 5.19 | 6.92
25 | CCn1cc(C(C)N2C(=O)c3ccc(-n4cnc(C)c4)c(=O)n3CC2C)c2cc(C(F)(F)F)ccc21 (single isomer, unassigned) [compound 217] | 6.32 | 8.52
26 | Cc1cn(-c2ccc3n(c2=O)CC(C)N(C(C)c2c[nH]c4c(F)cc(Cl)cc24)C3=O)cn1 (single isomer, unassigned) [compound 218] | 5.42 | 6.85
27 | CCn1cc(C(C)N2C(=O)c3ccc(-n4cnc(C)c4)c(=O)n3CC2C)c2cc(Cl)cc(F)c21 (single isomer, unassigned) [compound 220] | 5.22 | 6.77
28 | Cc1cn(-c2ccc3n(c2=O)CC(C)N(C(C)c2cn(C)c4c(F)cc(Cl)cc24)C3=O)cn1 (single isomer, unassigned) [compound 224] | 5.73 | 8.00
29 | CCn1cc(C(C)N2C(=O)c3ccc(-n4cnc(C)c4)c(=O)n3C[C@H]2C)c2ccc(C(F)(F)F)cc21 (single isomer, unassigned) [compound 235] | 5.22 | 8.00
30 | CCn1cc(C(C)N2C(=O)c3ccc(-n4cnc(C)c4)c(=O)n3CC2C)c2cc(Cl)ccc21 (single isomer, unassigned) [compound 243] | 5.70 | 8.00
31 | CCn1cc(C(C)N2C(=O)c3ccc(-n4cnc(C)c4)c(=O)n3C[C@H]2C)c2ccc(C(F)(F)F)cc21 (single isomer, unassigned) [compound 244] | < 5.00 | 6.43
32 | Cc1cn(-c2ccc3n(c2=O)C[C@@H](C)N(C(C)c2cn(C4CC4)c4cc(F)c(Cl)cc24)C3=O)cn1 (single isomer, unassigned) [compound 248] | 6.00 | 8.10
33 | CCn1cc(C(C)N2C(=O)c3ccc(-n4cnc(C)c4)c(=O)n3CC2C)c2cc(Cl)ccc21 (single isomer, unassigned) [compound 249] | 5.10 | 6.31
34 | COc1cc2c(cc1Cl)c(C(C)N1C(=O)c3ccc(-n4cnc(C)c4)c(=O)n3C[C@H]1C)cn2C (single isomer, unassigned) [compound 256] | 5.40 | 7.40
35 | Cc1cn(-c2ccc3n(c2=O)CC(C)N(Cc2ccc(C)c(N4CCCCC4)c2)C3=O)cn1 (stereo not drawn) [compound 4] | < 5.00 | 7.10
36 | CCc1cn(-c2ccc3n(c2=O)CC(CN(C)C)N(Cc2cc(C(F)(F)F)cc(C(F)(F)F)c2)C3=O)cn1 (stereo not drawn) [compound 8] | < 5.00 | 6.03

From patent US20150141411A1, “SUBSTITUTED 3,4-DIHYDRO-2H-PYRIDO[1,2-A]PYRAZINE-1,6-DIONE DERIVATIVES USEFUL FOR THE TREATMENT OF (INTER ALIA) ALZHEIMER'S DISEASE” (Janssen Pharmaceuticals, Inc., priority 2012, published 2015)
